Laboratory results as given in patent publication US12091398B2, “PD-L1 antagonist compound” (ADLAI NORTYE BIOPHARMA CO., LTD., priority 2019, dated 2024).
Like-named read-outs stand apart in the source and are kept apart here.

Test system: PD-1/PD-L1 interaction
Experiment: Cell based PD-1/PD-L1 NFAT reporter assay
Design: species or system human
Settings: PD-1/NFAT-Reporter-Jurkat cells co-cultured with TCR activator/PD-L1-CHO cells, 6 hour incubation, luciferase, calibrated to Atezolizumab 10 nM, read-out: Absolute EC50
Protocol: Cell Based PD-1/PD-L1 NFAT Reporter Assay
Compounds of the present patent were tested in a cell based PD-1/PD-L1 NFAT reporter assay.
The cell-based luciferase reporter assay is used for monitoring the PD-1/PD-L1 inhibitor by characterizing the biological activity of PD-1: PD-L1 interactions in cellular context. PD-1/NFAT-Reporter-Jurkat cells stably over-expressing human PD-1 with NFAT reporter are used as effector cells. TCR activator/PD-L1—CHO cells over-expressing PD-L1 and an engineered T cell receptor (TCR) activator are used as target cells. When these two cells are co-cultivated, TCR complexes on effector cells are activated by TCR activator on target cells, resulting in expression of the NFAT luciferase reporter. However, PD1 and PD-L1 (or PD-L2) ligation prevents TCR activation and suppresses the NFAT-responsive luciferase activity. This inhibition can be specifically reversed by anti-PD1 or anti-PD-L1 inhibitors. PD1/PD-L1 inhibitors block PD1:PD-L1 interaction and promote TCR activation, resulting in reactivation of the NFAT responsive luciferase reporter.
PD-1/NFAT—Reporter—Jurkat cell (Cat: 60535) and TCR activator/PD-L1—CHO cell (Cat: 60536) were purchased from BPS Bioscience. Anti-human PD-L1 antibody (Atezolizumab, Cat: A2004) was purchased from Selleck; luciferase reporter gene expression detection kit (ONE-Glo™ Luciferase Assay System, Cat: E6120) was purchased from Promega; multifunction plate reader (SpectraMax i3x) was purchased from Molecular Devices.
PD-1/NFAT—Reporter—Jurkat cells and TCR activator/PD-L1—CHO cells were cultured in recommended media respectively.
Harvest TCR activator/PD-L1-CHO cells from culture and seed cells at a density of 35,000 cells per well into 96-well microplate in 100 µl of growth medium. Incubate cells at 37° C. in a CO2 incubator overnight. Next day, discard the culture media, add diluted compound in assay medium for 30 min. Anti-PD-L1 antibody (Atezolizumab, final concentration 10 nM) and 0.1% DMSO were the positive and negative control, respectively. Harvest the PD-1/NFAT-reporter-Jurkat cells by centrifugation and add to the wells. After 6 hour incubation, perform luciferase assay using the ONE-Glo™ Luciferase Assay System, following the manufacturer's assay protocol.
Anti-PD-L1 antibody (Atezolizumnab, 10 nM) was used as positive control to calibrate the inhibition rate using the following equation: % inhibition=(Sample luminescence/Average vehicle group luminescence−1)/(Average PD-L1 group luminescence/Average vehicle group luminescence−1)×100%.

| EC50 (Homo sapiens, 6 h) [nM] | EC50 [nM] | SMILES |
| --- | --- | --- |
| 340 | – | N#Cc1cc(COc2cc(OCc3cccc(-c4cccc5c4cnn5CCCN4CC[C@@H](O)C4)c3Br)c(Cl)cc2CN[C@@H](CO)C(=O)O)ccn1 [Compound 1] |
| – | 310 | N#Cc1cncc(COc2cc(OCc3cccc(-c4cccc5c4cnn5CCCN4CC[C@@H](O)C4)c3Br)c(Cl)cc2CN[C@@H](CO)C(=O)O)c1 [Compound 2] |
| 2380 | – | N#Cc1cncc(COc2cc(OCc3cccc(-c4cccc5c4ccn5CCCN4CC[C@@H](O)C4)c3Br)c(Cl)cc2CN[C@@H](CO)C(=O)O)c1 [Compound 3] |
| 5490 | – | Cc1nn(CCCN2CC[C@@H](O)C2)c2cccc(-c3cccc(COc4cc(OCc5cncc(C#N)c5)c(CN[C@@H](CO)C(=O)O)cc4Cl)c3Br)c12 [Compound 4] |
| – | 241 | N#Cc1cncc(COc2cc(OCc3cccc(-c4cccc5c4cnn5CCCCN4CC[C@@H](O)C4)c3Br)c(Cl)cc2CN[C@@H](CO)C(=O)O)c1 [Compound 5] |
| 266 | – | N#Cc1cncc(COc2cc(OCc3cccc(-c4cccc5c4cnn5CCCN4CCC(O)CC4)c3Br)c(Cl)cc2CN[C@@H](CO)C(=O)O)c1 [Compound 6] |
| 338 | – | CC(CO)(CO)NCc1cc(Cl)c(OCc2cccc(-c3cccc4c3cnn4CCCCN3CC[C@@H](O)C3)c2Br)cc1OCc1cncc(C#N)c1 [Compound 7] |
| – | 1160 | N#Cc1cncc(COc2cc(OCc3cccc(-c4cccc5c4cnn5CCCCN4CC[C@@H](O)C4)c3Br)c(Cl)cc2CN[C@@H](CO)C(=O)O)c1 [Compound 8] |
| 367 | – | N#Cc1cncc(COc2cc(OCc3cccc(-c4cccc5c4cnn5CCCCCN4CC[C@@H](O)C4)c3Br)c(Cl)cc2CN[C@@H](CO)C(=O)O)c1 [Compound 9] |
| 412 | – | CC(CO)(NCc1cc(Cl)c(OCc2cccc(-c3cccc4c3cnn4CCCN3CC[C@@H](O)C3)c2Br)cc1OCc1cncc(C#N)c1)C(=O)O (stereo partly drawn) [Compound 10] |
| – | 142 | CC(CO)(CO)NCc1cc(Cl)c(OCc2cccc(-c3cccc4c3cnn4CCCN3CC[C@@H](O)C3)c2Br)cc1OCc1cncc(C#N)c1 [Compound 11] |
| 289 | – | CC(CO)(NCc1cc(Cl)c(OCc2cccc(-c3cccc4c3cnn4CCCCN3CC[C@@H](O)C3)c2Br)cc1OCc1cncc(C#N)c1)C(=O)O (stereo partly drawn) [Compound 12] |
| 242 | – | CC(CO)(CO)NCc1cc(Cl)c(OCc2cccc(-c3cccc4c3cnn4CCCN3CCC(O)CC3)c2Br)cc1OCc1cncc(C#N)c1 [Compound 13] |
| 323 | – | CC(CO)(CO)NCc1cc(Cl)c(OCc2cccc(-c3cccc4c3cnn4[C@H]3CC[C@H](N4CC[C@@H](O)C4)CC3)c2Br)cc1OCc1cncc(C#N)c1 [Compound 14] |
| 3240 | – | CC(CO)(CO)NCc1cc(Cl)c(OCc2cccc(-c3cccc4c3cnn4CCCCN(CCO)CCO)c2Br)cc1OCc1cncc(C#N)c1 [Compound 15] |
| 9360 | – | CC(CO)(CO)NCc1cc(Cl)c(OCc2cccc(-c3cccc4c3cnn4CCCCNCCO)c2Br)cc1OCc1cncc(C#N)c1 [Compound 16] |
| 1760 | – | CC1(C)OCC(N2CCC(n3ncc4c(-c5cccc(COc6cc(OCc7cncc(C#N)c7)c(CN[C@@H](CO)C(=O)O)cc6Cl)c5Br)cccc43)CC2)CO1 [Compound 17] |
| 235 | – | C[C@@](CO)(NCc1cc(Cl)c(OCc2cccc(-c3cccc4c3cnn4CCCN3CC[C@@H](O)C3)c2Br)cc1OCc1cncc(C#N)c1)C(=O)O [Compound 18] |
| 764 | – | N#Cc1cncc(COc2cc(OCc3cccc(-c4cccc5c4cnn5CC4CCC(N5CC[C@@H](O)C5)CC4)c3Br)c(Cl)cc2CN[C@@H](CO)C(=O)O)c1 (stereo partly drawn) [Compound 19] |
| – | 876 | N#Cc1cncc(COc2cc(OCc3cccc(-c4cccc5c4cnn5CC4CCC(N5CC[C@@H](O)C5)CC4)c3Br)c(Cl)cc2CN[C@@H](CO)C(=O)O)c1 (stereo partly drawn) [Compound 20] |
| 3540 | – | CC(CO)(CO)NCc1cc(Cl)c(OCc2cccc(-c3cncc4c3cnn4CCCCN3CC[C@@H](O)C3)c2Br)cc1OCc1cncc(C#N)c1 [Compound 21] |
| 1130 | – | N#Cc1cncc(COc2cc(OCc3cccc(-c4cccc5c4cnn5C4CCN(C(CO)CO)CC4)c3Br)c(Cl)cc2CN[C@@H](CO)C(=O)O)c1 [Compound 22] |
| 608 | – | N#Cc1cncc(COc2cc(OCc3cccc(-c4cccc5c4cnn5CCCCN4CCC[C@H]4C(=O)O)c3Br)c(Cl)cc2CN[C@@H](CO)C(=O)O)c1 [Compound 23] |

| EC50 (Homo sapiens, 6 h) [nM] | EC50 [nM] | SMILES |
| --- | --- | --- |
| > 10000 | – | N#Cc1cncc(COc2cc(OCc3cccc(-c4cccc5c4cnn5CCCN4CC[C@@H](O)C4)c3C3CC3)c(Cl)cc2CN[C@@H](CO)C(=O)O)c1 [Compound 24] |
| 138 | – | Cc1c(COc2cc(OCc3cncc(C#N)c3)c(CNC(C)(CO)CO)cc2Cl)cccc1-c1cccc2c1cnn2CCCN1CC[C@@H](O)C1 [Compound 25] |
| 1830 | – | Cc1c(COc2cc(OCc3cncc(C#N)c3)c(CN[C@@H](CO)C(=O)O)cc2Cl)cccc1-c1ccnc2c1cnn2CCCCN1CC[C@@H](O)C1 [Compound 26] |
| 643 | – | Cc1c(COc2cc(OCc3cncc(C#N)c3)c(CN[C@@H](CO)C(=O)O)cc2Cl)cccc1-c1cccc2c1cnn2CCCCN1CC[C@@H](O)C1 [Compound 27] |
| 726 | – | N#Cc1cncc(COc2cc(OCc3cccc(-c4cccc5c4cnn5CCCCN4CC[C@@H](O)C4)c3[N+](=O)[O-])c(Cl)cc2CN[C@@H](CO)C(=O)O)c1 [Compound 28] |
| > 1100 | – | N#Cc1cncc(COc2cc(OCc3cccc(-c4cccc5c4cnn5CCCCN4CC[C@@H](O)C4)c3N)c(Cl)cc2CN[C@@H](CO)C(=O)O)c1 [Compound 29] |
| > 10000 | – | CN(C)c1c(COc2cc(OCc3cncc(C#N)c3)c(CN[C@@H](CO)C(=O)O)cc2Cl)cccc1-c1cccc2c1cnn2CCCCN1CC[C@@H](O)C1 [Compound 31] |
| – | 724 | N#Cc1cncc(COc2cc(OCc3cccc(-c4cccc5c4cnn5CCCN4CC[C@@H](O)C4)c3Br)c(Cl)cc2CN[C@@H](CO)C(=O)O)c1 [Compound 32] |
| – | > 370 | CC(CO)(CO)NCc1cc(Cl)c(OCc2cccc(-c3cccc4c3cnn4CCCN3CC[C@@H](O)C3)c2Br)cc1OCc1cncc(C#N)c1 [Compound 33] |
| 5780 | – | N#CCOc1cc(OCc2cccc(-c3cccc4c3cnn4CCCCN3CC[C@@H](O)C3)c2Br)c(Cl)cc1CN[C@@H](CO)C(=O)O [Compound 34] |
| 1540 | – | N#CCCCOc1cc(OCc2cccc(-c3cccc4c3cnn4CCCCN3CC[C@@H](O)C3)c2Br)c(Cl)cc1CN[C@@H](CO)C(=O)O [Compound 35] |
| 2340 | – | N#CCCCCOc1cc(OCc2cccc(-c3cccc4c3cnn4CCCCN3CC[C@@H](O)C3)c2Br)c(Cl)cc1CN[C@@H](CO)C(=O)O [Compound 36] |
| 1920 | – | N#CCCCCCOc1cc(OCc2cccc(-c3cccc4c3cnn4CCCCN3CC[C@@H](O)C3)c2Br)c(Cl)cc1CN[C@@H](CO)C(=O)O [Compound 37] |
| 7640 | – | NC(=O)COc1cc(OCc2cccc(-c3cccc4c3cnn4CCCCN3CC[C@@H](O)C3)c2Br)c(Cl)cc1CN[C@@H](CO)C(=O)O [Compound 38] |
| > 10000 | – | Cc1cncc(COc2cc(OCc3cccc(-c4cccc5c4cnn5CCCCN4CC[C@@H](O)C4)c3Br)c(Cl)cc2CN[C@@H](CO)C(=O)O)c1 [Compound 39] |
| > 10000 | – | COc1cncc(COc2cc(OCc3cccc(-c4cccc5c4cnn5CCCCN4CC[C@@H](O)C4)c3Br)c(Cl)cc2CN[C@@H](CO)C(=O)O)c1 [Compound 40] |
| 606 | – | O=C(O)[C@H](CO)NCc1cc(Cl)c(OCc2cccc(-c3cccc4c3cnn4CCCCN3CC[C@@H](O)C3)c2Br)cc1OCc1cncc(Cl)c1 [Compound 41] |
| > 10000 | – | Cn1cc(COc2cc(OCc3cccc(-c4cccc5c4cnn5CCCCN4CC[C@@H](O)C4)c3Br)c(Cl)cc2CN[C@@H](CO)C(=O)O)cn1 [Compound 42] |
| 153 | – | N#Cc1cc(C#N)cc(COc2cc(OCc3cccc(-c4cccc5c4cnn5CCCCN4CC[C@@H](O)C4)c3Br)c(Cl)cc2CN[C@@H](CO)C(=O)O)c1 [Compound 44] |
| 2720 | – | O=C(O)[C@H](CO)NCc1cc(Cl)c(OCc2cccc(-c3cccc4c3cnn4CCCCN3CC[C@@H](O)C3)c2Br)cc1OCC1CCOCC1 [Compound 45] |
| 846 | – | CN1CCC(COc2cc(OCc3cccc(-c4cccc5c4cnn5CCCCN4CC[C@@H](O)C4)c3Br)c(Cl)cc2CN[C@@H](CO)C(=O)O)CC1 [Compound 46] |
| 261 | – | O=C1CC[C@@H](COc2cc(OCc3cccc(-c4cccc5c4cnn5CCCCN4CC[C@@H](O)C4)c3Br)c(Cl)cc2CN[C@@H](CO)C(=O)O)N1 [Compound 47] |
